Tests used:
[1] = molecular target: T1, 5-hydroxytryptamine receptor 1A (Homo sapiens, UniProt P08908); assay: Binding affinity to 5HT1A receptor (unknown origin) assessed as inhibition constant by radioligand binding assay
T1 sequence (P08908 whole entry): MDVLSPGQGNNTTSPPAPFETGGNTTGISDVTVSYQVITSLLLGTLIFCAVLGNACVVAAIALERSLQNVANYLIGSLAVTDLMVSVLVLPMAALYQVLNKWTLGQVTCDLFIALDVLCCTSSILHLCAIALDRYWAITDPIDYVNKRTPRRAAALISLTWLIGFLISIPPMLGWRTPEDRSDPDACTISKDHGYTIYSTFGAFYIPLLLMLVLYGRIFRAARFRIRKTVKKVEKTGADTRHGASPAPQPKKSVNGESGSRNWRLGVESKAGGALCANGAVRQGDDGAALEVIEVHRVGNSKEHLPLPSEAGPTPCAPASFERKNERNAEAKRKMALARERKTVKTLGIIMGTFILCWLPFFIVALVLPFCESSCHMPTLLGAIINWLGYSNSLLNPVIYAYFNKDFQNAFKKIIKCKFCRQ

[2] = molecular target: 5-hydroxytryptamine receptor 2A (Homo sapiens, UniProt P28223); assay: Binding affinity to 5-HT2A receptor (unknown origin) assessed as inhibition constant by radioligand binding assay
Sequence of 5-hydroxytryptamine receptor 2A (P28223 whole entry): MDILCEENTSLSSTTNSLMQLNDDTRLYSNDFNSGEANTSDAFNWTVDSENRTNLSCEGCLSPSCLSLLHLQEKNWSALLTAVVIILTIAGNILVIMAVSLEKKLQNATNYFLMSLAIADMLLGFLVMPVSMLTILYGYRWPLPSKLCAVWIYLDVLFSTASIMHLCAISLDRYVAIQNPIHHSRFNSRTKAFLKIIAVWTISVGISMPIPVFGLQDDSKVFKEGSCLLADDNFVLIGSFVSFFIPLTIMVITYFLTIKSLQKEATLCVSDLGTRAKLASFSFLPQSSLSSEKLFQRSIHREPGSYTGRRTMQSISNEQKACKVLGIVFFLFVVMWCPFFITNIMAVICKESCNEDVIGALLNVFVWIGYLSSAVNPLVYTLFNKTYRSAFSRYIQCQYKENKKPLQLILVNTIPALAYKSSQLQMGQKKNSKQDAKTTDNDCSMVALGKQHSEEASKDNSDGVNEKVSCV

With `CC(=O)Oc1cccc2[nH]cc(CCN(C)C)c12` as the molecule, how does the Ki [1] read?
Its Ki is over 10 µM.

For `CN(C)CCc1c(Cl)[nH]c2ccccc12`, which Ki [1] is on record?
The Ki was over 10 µM.

With `CC(=O)Oc1cccc2[nH]c(Br)c(CCN(C)C)c12` as the molecule, how does the Ki [1] read?
Its Ki is over 10 µM.

`CC(C)N(CCc1c(Br)[nH]c2ccccc12)C(C)C` was tested. Which Ki [1] did it give?
The Ki was over 10 µM.

What about the Ki [2] of the same molecule?
Its Ki is over 10 µM.

For `CC(=O)Nc1cccc2[nH]cc(CCN(C)C)c12`, which Ki [1] is on record?
The Ki was over 10 µM.

Source: ChEMBL document CHEMBL6109170, “Integrated Advancements in Neuroplasticity, Psychedelic Therapeutics, and AI-Driven Innovations for Precision Medicine” (ACS Med Chem Lett, 2025)
